Laboratory results: patent US11248006B2, “Macrocyclic derivative of pyrazol[3,4-d]pyrimidin-3-one, pharmaceutical composition and use thereof” (SHANGHAI DE NOVO PHARMATECH CO., LTD., priority 2017, dated 2022)

Target: Wee1 (Homo sapiens (Human), UniProt P30291)
Experiment: Wee1 enzyme catalysis assay (ATP-Glo Max kinase luminescence detection kit)
Format: biochemical
Conditions: Wee1 enzymatic activity, 10 μM ATP, Poly (Lys, Tyr) substrate, 30° C. for 50 minutes
Method: In the present disclosure, Wee1 enzyme catalysis assay was carried out using the ATP-Glo Max kinase luminescence detection kit (Promega). Kinase activity was assessed by quantitative detection of the amount of ATP retained in the solution following the kinase reaction. The luminescent signal in the assay is proportional to the amount of ATP and inversely proportional to the kinase activity. The concentration of the compound in the assay ranged from 0.5 nM to 30 μM. The compound was dissolved in 10% DMSO, and 5 μL of the solution was added to 50 μL of the reaction, and the concentration of DMSO in the final reaction was 1%. The reaction was carried out at 30° C. for 50 minutes. 40 mM trishydroxymetyl aminomethane, pH 7.4, 10 mM MgCl2, 0.1 mg/ml BSA, 2 mM DTT, 0.1 mg/ml Poly (Lys, Tyr) substrate, 10 μM ATP and Wee1 were contained in the reaction mixture. After the enzymatic reaction, 50 μL of ATP-Glo Max kinase luminescence detection assay solution (Promega) was added and incubated for 15 minutes at room temperature. The luminescent signal was measured using a microplate reader. In some assays, a known Wee1 inhibitor was added as a positive control. Luminance data was analyzed using Graphpad software. The difference between the luminescence intensity in the absence of Wee1 and the luminescence intensity in the presence of Wee1 was defined as 100% activity (Lut−Luc). Using the luminescence intensity signal (Lu) in the presence of the compound, the % activity was calculated as follows: % Activity={(Lut−Lu)/(Lut−Luc)}×100%, wherein, Lu=luminous intensity of the compound Non-linear regression analysis was employed to plot the dose-effect curve of % activity value and the corresponding concentrations for the series of compounds. The equation is Y=B+(TB)/1+10((Log EC50−X)×Hill Slope), Y=% activity, B=minimum activity percentage, T=maximum activity percentage, X=logarithm of compound and Hill slope=slope factor or Hill coefficient. The IC50 value was determined by the concentration of a compound that is required to obtain 50% of the maximum effect.

Chain of Wee1 (P30291 whole entry): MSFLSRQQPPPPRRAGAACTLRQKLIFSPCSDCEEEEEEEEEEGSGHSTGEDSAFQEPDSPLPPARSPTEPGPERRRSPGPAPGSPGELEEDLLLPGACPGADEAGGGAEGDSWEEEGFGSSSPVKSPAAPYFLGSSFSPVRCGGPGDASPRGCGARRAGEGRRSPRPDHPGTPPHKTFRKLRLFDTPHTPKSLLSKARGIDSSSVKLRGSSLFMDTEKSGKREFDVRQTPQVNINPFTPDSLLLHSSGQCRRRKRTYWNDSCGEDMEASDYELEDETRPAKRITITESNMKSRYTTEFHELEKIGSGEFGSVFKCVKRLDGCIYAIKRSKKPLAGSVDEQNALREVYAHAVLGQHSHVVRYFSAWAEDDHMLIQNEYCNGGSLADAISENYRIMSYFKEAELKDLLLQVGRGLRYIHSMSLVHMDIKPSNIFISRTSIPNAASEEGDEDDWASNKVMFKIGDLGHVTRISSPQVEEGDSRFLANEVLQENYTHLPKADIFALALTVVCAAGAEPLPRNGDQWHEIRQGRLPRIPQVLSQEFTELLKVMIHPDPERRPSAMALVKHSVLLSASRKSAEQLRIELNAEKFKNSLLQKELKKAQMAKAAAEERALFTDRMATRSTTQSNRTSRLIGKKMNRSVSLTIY

Structure (SMILES)	IC50 [nM]
CN1CCN(c2ccc(Nc3ncc4c(=O)n5n(c4n3)-c3cccc(n3)OCCC/C=C\C5)cc2)CC1 [Compound 1-1-2]	32
CN1CCN(c2ccc(Nc3ncc4c(=O)n5n(c4n3)-c3cccc(n3)OCC/C=C\C5)cc2)CC1 [Compound 1-1-3]	7.3
CN1CCN(c2ccc(Nc3ncc4c(=O)n5n(c4n3)-c3cccc(n3)OCCOC/C=C/C5)cc2)CC1 [Compound 1-1-4]	30.2
CN1CCN(c2ccc(Nc3ncc4c(=O)n5n(c4n3)-c3cccc(n3)OCC/C=C\C5)cc2CO)CC1 [Compound 1-1-5]	6.1
CN1Cc2cc(Nc3ncc4c(=O)n5n(c4n3)-c3cccc(n3)OCCCC/C=C\C5)ccc2C2(CC2)C1 [Compound 1-2-2]	10.3
CN1Cc2cc(Nc3ncc4c(=O)n5n(c4n3)-c3cccc(n3)OCC/C=C\C5)ccc2C(C)(C)C1 [Compound 1-3-1]	8.1
CN1Cc2ccc(Nc3ncc4c(=O)n5n(c4n3)-c3cccc(n3)OCCOC/C=C/C5)cc2C(C)(C)C1 [Compound 1-3-2]	23.8
CC(=O)N1CCCCC=CCn2c(=O)c3cnc(Nc4ccc(N5CCN(C)CC5)cc4)nc3n2-c2cccc1n2 [Compound 2-1-1]	75.2
CC(=O)N1CCCCC=CCn2c(=O)c3cnc(Nc4ccc(N5CCN(C)CC5)cc4)nc3n2-c2cccc1n2 [Compound 2-1-2]	62.5
CC(=O)N1CC/C=C\Cn2c(=O)c3cnc(Nc4ccc5c(c4)CN(C)CC5(C)C)nc3n2-c2cccc1n2 [Compound 2-3-1]	10.7
CC(=O)N1CCC/C=C\Cn2c(=O)c3cnc(Nc4ccc5c(c4)CN(C)CC5(C)C)nc3n2-c2cccc1n2 [Compound 2-3-2]	16.4
CN1Cc2cc(Nc3ncc4c(=O)n5n(c4n3)-c3ccc4c(n3)N(CCCC/C=C/C5)C(=O)CO4)ccc2C2(CC2)C1 [Compound 3-2-1]	21
CCN1Cc2cc(Nc3ncc4c(=O)n5n(c4n3)-c3ccc4c(n3)N(CCC/C=C\C5)C(=O)CO4)ccc2C2(CC2)C1 [Compound 3-2-5]	7.7
O=C1COc2ccc3nc2N1CCC/C=C\Cn1c(=O)c2cnc(Nc4ccc5c(c4)CN(CC(F)F)CC54CC4)nc2n1-3 [Compound 3-2-8]	9
CC1CN(c2ccc(Nc3ncc4c(=O)n5n(c4n3)-c3ccc4c(n3)N(CCC/C=C\C5)C(=O)CO4)cc2)CCN1C (centres unmarked) [Compound 3-3-3]	5.7
CN1C[C@@H]2C[C@H]1CN2c1ccc(Nc2ncc3c(=O)n4n(c3n2)-c2ccc3c(n2)N(CCC/C=C\C4)C(=O)CO3)cc1 [Compound 3-3-4]	8.6
O=C1COc2ccc3nc2N1CCC/C=C\Cn1c(=O)c2cnc(Nc4ccc(N5CCN6CCCC6C5)cc4)nc2n1-3 (centres unmarked) [Compound 3-3-10]	8.8
CN1Cc2cc(Nc3ncc4c(=O)n5n(c4n3)-c3ccc4c(n3)N(CCC/C=C\C5)C(=O)CO4)ccc2C1=O [Compound 3-6-1]	16.2
CN(C)CCn1ccc2cc(Nc3ncc4c(=O)n5n(c4n3)-c3ccc4c(n3)N(CCC/C=C\C5)C(=O)CO4)ccc21 [Compound 3-7-1]	7.6
CN1CCCC(n2ccc3cc(Nc4ncc5c(=O)n6n(c5n4)-c4ccc5c(n4)N(CCC/C=C\C6)C(=O)CO5)ccc32)C1 (centres unmarked) [Compound 3-7-2]	18.2
COC(=O)N1CCC(n2ccc3cc(Nc4ncc5c(=O)n6n(c5n4)-c4ccc5c(n4)N(CCC/C=C\C6)C(=O)CO5)ccc32)CC1 [Compound 3-7-4]	36.6
CC(C)N1CCC(n2ncc3cc(Nc4ncc5c(=O)n6n(c5n4)-c4ccc5c(n4)N(CCC/C=C\C6)C(=O)CO5)ccc32)CC1 [Compound 3-7-14]	6.5
CN1Cc2cc(Nc3ncc4c(=O)n5n(c4n3)-c3ccc4c(c3)N(CCC/C=C\C5)C(=O)CO4)ccc2C2(CC2)C1 [Compound 4-1-1]	5.1
CN(C)CCn1ccc2cc(Nc3ncc4c(=O)n5n(c4n3)-c3cccc(n3)C(C)(O)CCC/C=C\C5)ccc21 (centres unmarked) [Compound 6-1-1]	155
CN1Cc2cc(Nc3ncc4c(=O)n5n(c4n3)-c3ccc4c(n3)N(CCC/C=C\C5)C(=O)C(C)(C)O4)ccc2C2(CC2)C1 [Compound 7-1-1]	12.9
CN1Cc2cc(Nc3ncc4c(=O)n5n(c4n3)-c3ccc4c(n3)N(CCO4)C(=O)CC/C=C\C5)ccc2C(C)(C)C1 [Compound 8-1-1]	20.1
CN1Cc2cc(Nc3ncc4c(=O)n5n(c4n3)-c3ccc4c(n3)N(CCC/C=C\C5)CCO4)ccc2C2(CC2)C1 [Compound 8-2-1]	11.6
CN1Cc2cc(Nc3ncc4c(=O)n5n(c4n3)-c3ccc4c(n3)N(CCO4)C(=O)OC/C=C\C5)ccc2C2(CC2)C1 [Compound 8-3-1]	16.3
CN1Cc2cc(Nc3ncc4c(=O)n5n(c4n3)-c3cccc(n3)N(C)CCC/C=C\C5)ccc2C(C)(C)C1 [Compound 9-1-1]	11.8

Other lines, results leading:

IC50 [nM]	Structure (SMILES)
6.8	COc1cc(Nc2ncc3c(=O)n4n(c3n2)-c2cccc(n2)OCC/C=C\C4)ccc1N1CCN(C)CC1 [Compound 1-1-6]
4.8	COc1cc(Nc2ncc3c(=O)n4n(c3n2)-c2ccc3c(n2)N(CCC/C=C\C4)C(=O)CO3)ccc1N1CCN(C)C(C)C1 (centres unmarked) [Compound 3-3-5]
24.8	CN1CCN(Cc2ccc(Nc3ncc4c(=O)n5n(c4n3)-c3ccc4c(n3)N(CCC/C=C\C5)C(=O)CO4)cc2)CC1 [Compound 3-3-6]
7.6	CN1CCN(c2ccc(Nc3ncc4c(=O)n5n(c4n3)-c3ccc4c(n3)N(CCC/C=C\C5)C(=O)CO4)cc2F)CC1 [Compound 3-3-8]
6.3	Cc1cc(Nc2ncc3c(=O)n4n(c3n2)-c2ccc3c(n2)N(CCCC=CC4)C(=O)CO3)ccc1N1CCN(C)CC1 [Compound 3-3-9]
6.5	COc1cc(Nc2ncc3c(=O)n4n(c3n2)-c2ccc3c(n2)N(CCC/C=C/C4)C(=O)CO3)ccc1N1CCN(C)CC1 [Compound 3-3-11]
9.4	CN1CCN(C)c2ccc(Nc3ncc4c(=O)n5n(c4n3)-c3ccc4c(n3)N(CCC/C=C\C5)C(=O)CO4)cc2C1 [Compound 3-4-1]
8.2	CN1CCOc2ccc(Nc3ncc4c(=O)n5n(c4n3)-c3ccc4c(n3)N(CCC/C=C\C5)C(=O)CO4)cc2C1 [Compound 3-4-2]
7.5	COc1cc(Nc2ncc3c(=O)n4n(c3n2)-c2ccc3c(n2)N(CCC/C=C\C4)C(=O)CC3)ccc1N1CCN(C)CC1 [Compound 5-1-1]
13	COc1cc(Nc2ncc3c(=O)n4n(c3n2)-c2ccc3c(n2)N(CCC/C=C\C4)CCO3)ccc1N1CCN(C)CC1 [Compound 8-2-2]
8.4	COc1cc(Nc2ncc3c(=O)n4n(c3n2)-c2ccc3c(n2)N(CCCC#CC4)C(=O)CO3)ccc1N1CCN(C)CC1 [Compound 10-1-3]
11.7	COc1cc(Nc2ncc3c(=O)n4n(c3n2)-c2ccc3c(n2)N(CCC#CC4)C(=O)CO3)ccc1N1CCN(C)CC1 [Compound 10-1-5]
